Here are results for nine molecules from DBAASP.

≈ marks a conversion by molar mass, not a printed value.

Some test systems named below: Enterococcus faecalis; Enterococcus faecalis VR; Staphylococcus aureus MR; Enterococcus faecium; Enterococcus faecium VR; Streptococcus pneumoniae; Enterobacter cloacae; Klebsiella pneumoniae; Staphylococcus aureus; Citrobacter sp.; Candida albicans C627.
Common to all, as to assay: ≥ marks a high value that may be exact or a test limit, other limits are often not marked, values filed in µg/mL are converted to µM
Test [1] has as its system Staphylococcus epidermidis KCTC 1917.
Test [2] concerns Pseudomonas aeruginosa KCTC 1637.
The subject of test [3] is Staphylococcus aureus KCTC 1621.
In test [4] the test system is Salmonella typhimurium KCTC 1926.
In test [5] the test system is Bacillus subtilis KCTC 3068.
Test [6] concerns Escherichia coli KCTC 1682.
Test [7] relates to Escherichia coli ATCC 25922.
Test [8] deals with Staphylococcus aureus ATCC 25923.
For test [9], the system named is Acinetobacter baumannii ATCC 15308.
The subject of test [10] is Pseudomonas aeruginosa ATCC 15442.
The subject of test [11] is Bacillus subtilis ATCC 6633.
In test [12] the test system is Escherichia coli ATCC 10536.
For test [13], the system named is Pseudomonas aeruginosa ATCC BAA-427.
Test [14] relates to Pseudomonas aeruginosa H103.
Test [15] relates to Enterococcus faecium mic80.
In test [16] the test system is Pseudomonas aeruginosa LES400.
Test [17] deals with Staphylococcus aureus C623.
Test [18] relates to Escherichia coli ESBL 63103.
The subject of test [19] is Pseudomonas aeruginosa 213.

Consider `CC[C@H](C)[C@H](NC(=O)[C@H](CS)NC(=O)[C@H](Cc1cnc[nH]1)NC(=O)[C@H](C)NC(=O)[C@H](C)N)C(=O)N[C@@H](CCC(N)=O)C(=O)N[C@@H](CC(C)C)C(=O)NCC(=O)N[C@@H](CCCCN)C(=O)N[C@@H](CCCN=C(N)N)C(N)=O` [AAHCIQLGKR], for which the MIC (in test [1]; in test [2]; in test [3]; against Enterococcus faecalis; in the test on Enterococcus faecalis VR; in test [4]) was 30 µM (≈ 32.9 µg/mL) throughout. The MIC (in [5]; in the test on Staphylococcus aureus MR; against Enterococcus faecium; in [6]; in the test with Enterococcus faecium VR) was 30 µM (≈ 32.9 µg/mL) in each case.

Regarding `CC(C)C[C@H](NC(=O)[C@H](CS)NC(=O)[C@H](Cc1cnc[nH]1)NC(=O)[C@H](C)NC(=O)[C@H](C)N)C(=O)N[C@@H](C)C(=O)N[C@@H](CCCCN)C(=O)N[C@@H](CCCN=C(N)N)C(=O)N[C@@H](CCCCN)C(=O)N[C@@H](CCCCN)C(N)=O` [AAHCLAKRKK], the MIC (in test [1]; in test [2]; in [3]; against Enterococcus faecalis; in the test with Enterococcus faecalis VR; in test [4]) was 30 µM each time. For the same molecule, the MIC (in test [5]; with Staphylococcus aureus MR; in the test with Enterococcus faecium; in [6]; against Enterococcus faecium VR) was 30 µM in each case.

On to `CC(C)C[C@H](NC(=O)[C@H](Cc1ccccc1)NC(=O)[C@H](CC(C)C)NC(=O)[C@H](CS)NC(=O)[C@H](Cc1cnc[nH]1)NC(=O)[C@@H](NC(=O)[C@H](C)N)[C@@H](C)O)C(=O)N[C@@H](CCCCN)C(=O)N[C@@H](CCCCN)C(=O)N[C@@H](CCCN=C(N)N)C(N)=O` [ATHCLFLKKR], for which the MIC in test [1] came to 15 µM; in [2], 15 µM; in [3], 15 µM; against Enterococcus faecalis, 30 µM; in the test on Enterococcus faecalis VR it was 30 µM; in test [4], 15 µM. Besides, the MIC in test [5] came out at 7.5 µM; in the test with Staphylococcus aureus MR it was 15 µM; in the test on Enterococcus faecium it was 30 µM; in test [6], 15 µM; with Enterococcus faecium VR, 30 µM.

For `CC[C@H](C)[C@H](NC(=O)[C@H](CCSC)NC(=O)[C@H](C)NC(=O)[C@@H]1CCCN1C(=O)[C@@H]1CCCN1C(=O)[C@H](CCCN=C(N)N)NC(=O)[C@H](CCCCN)NC(=O)[C@@H](NC(=O)[C@H](CC(C)C)NC(=O)CNC(=O)CNC(=O)[C@H](CC(C)C)NC(=O)[C@@H](N)Cc1ccccc1)[C@@H](C)CC)C(=O)N[C@H]1CSSC[C@@H](C(=O)O)NC(=O)[C@H](CCCCN)NC(=O)[C@H](CCCCN)NC(=O)[C@H](CCCN=C(N)N)NC(=O)[C@H](C(C)C)NC(=O)[C@H](C)NC1=O` [FLGGLIKRPPAMICAVRKKC], the MIC was over 114 µM in test [7]; over 114 µM in test [8]; at least 114 µM against Streptococcus pneumoniae; at least 114 µM in [9]; at least 114 µM in the test on Enterobacter cloacae; over 114 µM against Klebsiella pneumoniae. In addition, the MIC against Staphylococcus aureus is over 114 µM; in [10], at least 114 µM; against Citrobacter sp. it was at least 114 µM.

Take `CC[C@H](C)[C@H](NC(=O)[C@H](CC(C)C)NC(=O)CNC(=O)CNC(=O)[C@H](CC(C)C)NC(=O)[C@@H](N)Cc1ccccc1)C(=O)N[C@@H](CCCCN)C(=O)N[C@@H](Cc1c[nH]c2ccccc12)C(=O)N1CCC[C@H]1C(=O)N[C@@H](Cc1c[nH]c2ccccc12)C(=O)N[C@@H](Cc1c[nH]c2ccccc12)C(=O)N1CCC[C@H]1C(=O)N[C@@H](Cc1c[nH]c2ccccc12)C(=O)N[C@@H](CCCN=C(N)N)C(=O)N[C@@H](CCCN=C(N)N)C(N)=O` [FLGGLIKWPWWPWRR]: the MIC was 3.91 µM (≈ 7.81 µg/mL) in test [7]; 3.91 µM (≈ 7.81 µg/mL) in [8]; 3.91 µM (≈ 7.81 µg/mL) in the test on Streptococcus pneumoniae; 31.3 µM (≈ 62.5 µg/mL) in test [9]; at least 125 µM against Enterobacter cloacae; over 125 µM against Klebsiella pneumoniae. Moreover, the MIC is 3.91 µM (≈ 7.81 µg/mL) with Staphylococcus aureus, 15.6 µM (≈ 31.2 µg/mL) in [10] and at least 125 µM in the test on Citrobacter sp..

Take `CC[C@H](C)[C@H](N)C(=O)N[C@@H](CC(C)C)C(=O)NCC(=O)N[C@@H](CCCCN)C(=O)N[C@H](C(=O)N[C@@H](Cc1c[nH]c2ccccc12)C(=O)N[C@@H](CCCCN)C(=O)NCC(=O)N[C@@H](CCCCN)C(=O)N[C@@H](CCCCN)C(=O)N[C@@H](CO)C(=O)N[C@@H](CC(C)C)C(=O)N[C@@H](Cc1ccccc1)C(N)=O)[C@@H](C)CC` [ILGKIWKGKKSLF]: the MIC was 2 µM (≈ 3.03 µg/mL) in test [7]; 1 µM (≈ 1.52 µg/mL) in [8]; 1 µM (≈ 1.52 µg/mL) in [11]; 1 µM (≈ 1.52 µg/mL) in test [12]; 2 µM (≈ 3.03 µg/mL) in [13].

Regarding `NCCCC[C@H](N)C(=O)N[C@@H](Cc1c[nH]c2ccccc12)C(=O)N[C@@H](Cc1c[nH]c2ccccc12)C(=O)N[C@@H](CCCN=C(N)N)C(=O)N[C@@H](Cc1c[nH]c2ccccc12)C(=O)N[C@@H](CCCN=C(N)N)C(=O)N[C@@H](CCCN=C(N)N)C(=O)N[C@@H](Cc1c[nH]c2ccccc12)C(=O)N[C@@H](Cc1c[nH]c2ccccc12)C(=O)O` [KWWRWRRWW], the minimum inhibitory concentration (MIC) in test [8] was 5.18 µM (≈ 8 µg/mL); in test [14], 20.7 µM (≈ 32 µg/mL); in test [15], 20.7 µM (≈ 32 µg/mL); in [16], at least 41.4 µM; in test [17] it was 5.18 µM (≈ 8 µg/mL); in [18] it was at least 82.8 µM. Besides, the MIC in the test on Candida albicans C627 was 5.18 µM (≈ 8 µg/mL); in test [19] it was at least 82.8 µM.

With `CC(C)C[C@H](NC(=O)[C@@H](N)CC(C)C)C(=O)N1CCC[C@H]1C(=O)N[C@@H](Cc1c[nH]c2ccccc12)C(=O)N[C@@H](CCCCN)C(=O)N[C@@H](Cc1c[nH]c2ccccc12)C(=O)N1CCC[C@H]1C(=O)N[C@@H](Cc1c[nH]c2ccccc12)C(=O)N[C@@H](Cc1c[nH]c2ccccc12)C(=O)N[C@@H](CCCCN)C(=O)N[C@@H](Cc1c[nH]c2ccccc12)C(=O)N[C@@H](CCCN=C(N)N)C(=O)N[C@@H](CCCN=C(N)N)C(N)=O` [LLPWKWPWWKWRR], the MIC in [7] is 16.1 µM (≈ 31.2 µg/mL); in test [8] it was 16.1 µM (≈ 31.2 µg/mL); in the test with Streptococcus pneumoniae, 16.1 µM (≈ 31.2 µg/mL); in test [9], at least 129 µM; with Enterobacter cloacae, at least 129 µM; with Klebsiella pneumoniae, over 129 µM. The results for the MIC (with Staphylococcus aureus; in test [10]; against Citrobacter sp.) were 16.1 µM (≈ 31.2 µg/mL), 16.1 µM (≈ 31.2 µg/mL) and at least 129 µM, respectively.

Consider `CC[C@H](C)[C@H](NC(=O)[C@H](Cc1c[nH]c2ccccc12)NC(=O)[C@H](Cc1c[nH]c2ccccc12)NC(=O)[C@H](CCCN=C(N)N)NC(=O)[C@H](CCCCN)NC(=O)[C@H](Cc1c[nH]c2ccccc12)NC(=O)[C@H](CC(C)C)NC(=O)[C@@H](N)CCCN=C(N)N)C(=O)N[C@@H](CCCN=C(N)N)C(=O)O` [RLWKRWWIR], for which the MIC was 91.4 µM (≈ 128 µg/mL) in test [8]; at least 91.4 µM in [14]; at least 45.7 µM in test [15]; at least 91.4 µM in [16]; at least 45.7 µM in test [17]; at least 45.7 µM in test [18]. Further, the values for the MIC (in the test with Candida albicans C627; in test [19]) were 11.4 µM (≈ 16 µg/mL) and at least 91.4 µM, respectively.

Usually MIC stands for the lowest concentration that inhibits growth of the organism. A high value points to a less susceptible organism.
